Values belong to the compound of their own block, whether it stands above or below them.
Columns and labels:
Coagulation factor X = Coagulation factor X (Homo sapiens, UniProt P00742); assay: Inhibition of Factor 10a
[1] = Oral bioavailability in rat; format: ADME, organism-based; settings: in vivo
[2] = AUC in Beagle dog at 1 mg/kg, po; format: ADME, organism-based, Canis lupus familiaris; design: dose 1 mg/kg, route oral; settings: plasma
[3] = Inhibition of kallikrein
Plasminogen = Plasminogen (Homo sapiens, UniProt P00747); assay: Inhibition of plasmin
Plasminogen, sequence (P00747 97-580 limits assumed): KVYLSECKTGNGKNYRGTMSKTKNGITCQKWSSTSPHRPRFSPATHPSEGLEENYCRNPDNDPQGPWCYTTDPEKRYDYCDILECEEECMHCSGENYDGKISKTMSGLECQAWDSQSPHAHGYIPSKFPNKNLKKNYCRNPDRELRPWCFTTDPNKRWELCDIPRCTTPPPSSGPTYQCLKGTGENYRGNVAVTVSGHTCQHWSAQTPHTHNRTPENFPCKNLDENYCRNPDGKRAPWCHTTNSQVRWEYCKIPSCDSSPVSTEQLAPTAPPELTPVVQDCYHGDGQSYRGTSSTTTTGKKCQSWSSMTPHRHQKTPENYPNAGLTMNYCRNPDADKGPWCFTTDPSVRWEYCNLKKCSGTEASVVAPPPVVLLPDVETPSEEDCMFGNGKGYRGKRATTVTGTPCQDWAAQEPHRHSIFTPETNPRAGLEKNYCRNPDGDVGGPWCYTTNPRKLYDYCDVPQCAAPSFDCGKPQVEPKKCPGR
Plasminogen, sequence (P00747 581-810 limits assumed): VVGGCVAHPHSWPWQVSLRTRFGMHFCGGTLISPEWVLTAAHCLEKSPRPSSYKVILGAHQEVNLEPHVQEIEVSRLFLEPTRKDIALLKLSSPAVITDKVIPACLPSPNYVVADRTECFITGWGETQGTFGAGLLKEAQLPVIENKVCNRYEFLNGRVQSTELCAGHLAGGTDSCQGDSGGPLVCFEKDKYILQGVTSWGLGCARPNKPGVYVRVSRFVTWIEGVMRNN

[4] = Volume of distribution in cynomolgus monkey at 0.1 mg/kg, iv and 1 mg/kg, po; format: ADME, organism-based, Macaca fascicularis; settings: in vivo
[5] = AUC in rat at 6 mg/kg, po; format: ADME, organism-based; design: dose 6 mg/kg, route oral; settings: plasma
[6] = Clearance in cynomolgus monkey at 0.1 mg/kg, iv and 1 mg/kg, po; format: ADME, organism-based, Macaca fascicularis; settings: in vivo
[7] = Volume of distribution in rat at 0.2 mg/kg, iv and 6 mg/kg, po; format: ADME, organism-based; settings: in vivo
[8] = Clearance in Beagle dog at 0.1 mg/kg, iv and 1 mg/kg, po; format: ADME, organism-based, Canis lupus familiaris; settings: in vivo
[9] = Inhibition of trypsin
[10] = Volume of distribution in Beagle dog at 0.1 mg/kg, iv and 1 mg/kg, po; format: ADME, organism-based, Canis lupus familiaris; settings: in vivo
[11] = biological target: Tissue-type plasminogen activator (Homo sapiens, UniProt P00750); assay: Inhibition of tissue plasminogen activator
Tissue-type plasminogen activator, sequence (P00750 whole entry): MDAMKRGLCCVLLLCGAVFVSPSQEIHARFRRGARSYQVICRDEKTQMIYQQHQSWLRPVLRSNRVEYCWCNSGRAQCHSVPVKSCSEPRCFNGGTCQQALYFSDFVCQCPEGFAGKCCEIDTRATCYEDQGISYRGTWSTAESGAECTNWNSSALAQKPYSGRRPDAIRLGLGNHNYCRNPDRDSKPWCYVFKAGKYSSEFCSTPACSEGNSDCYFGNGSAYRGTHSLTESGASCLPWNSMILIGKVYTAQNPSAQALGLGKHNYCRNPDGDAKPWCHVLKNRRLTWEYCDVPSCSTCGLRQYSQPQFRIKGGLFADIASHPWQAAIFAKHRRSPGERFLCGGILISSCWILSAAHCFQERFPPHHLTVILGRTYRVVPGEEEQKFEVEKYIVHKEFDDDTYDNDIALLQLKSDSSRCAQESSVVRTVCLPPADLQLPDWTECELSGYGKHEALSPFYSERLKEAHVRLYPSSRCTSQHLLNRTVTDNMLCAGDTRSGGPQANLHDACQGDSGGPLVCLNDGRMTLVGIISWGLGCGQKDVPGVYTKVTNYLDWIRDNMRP

[12] = AUC in cynomolgus monkey at 1 mg/kg, po; format: ADME, organism-based, Macaca fascicularis; design: dose 1 mg/kg, route oral; settings: plasma
[13] = Fraction unbound in human plasma at 10 uM after 30 mins; format: ADME, cell-free
[14] = Half life in rat at 0.2 mg/kg, iv and 6 mg/kg, po; format: ADME, organism-based; settings: in vivo
[15] = Oral bioavailability in rat at 6 mg/kg; format: ADME, organism-based; settings: in vivo
[16] = biological target: Vitamin K-dependent protein C (Homo sapiens, UniProt P04070); assay: Inhibition of activated anticoagulant protein C
Vitamin K-dependent protein C, sequence (P04070 43-197 limits assumed): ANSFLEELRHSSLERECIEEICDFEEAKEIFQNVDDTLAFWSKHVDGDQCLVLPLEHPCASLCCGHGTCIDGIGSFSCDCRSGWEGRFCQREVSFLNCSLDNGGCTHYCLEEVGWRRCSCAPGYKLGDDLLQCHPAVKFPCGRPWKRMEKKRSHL
Vitamin K-dependent protein C, sequence (P04070 212-461 limits assumed): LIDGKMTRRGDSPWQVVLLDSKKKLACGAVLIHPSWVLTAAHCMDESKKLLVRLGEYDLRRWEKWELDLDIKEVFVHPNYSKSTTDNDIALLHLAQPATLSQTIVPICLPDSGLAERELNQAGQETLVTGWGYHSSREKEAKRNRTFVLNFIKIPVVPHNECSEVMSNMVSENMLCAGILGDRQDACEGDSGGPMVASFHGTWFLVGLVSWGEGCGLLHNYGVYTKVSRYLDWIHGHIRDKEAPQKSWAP

[17] = Oral bioavailability in Beagle dog at 1 mg/kg; format: ADME, organism-based, Canis lupus familiaris; settings: in vivo
[18] = Oral bioavailability in cynomolgus monkey at 1 mg/kg; format: ADME, organism-based, Macaca fascicularis; settings: in vivo
Prothrombin = Prothrombin (Homo sapiens, UniProt P00734); assay: Inhibition of thrombin
[19] = biological target: T1, Voltage-gated inwardly rectifying potassium channel KCNH2 (Homo sapiens, UniProt Q12809)
T1 sequence (Q12809 whole entry): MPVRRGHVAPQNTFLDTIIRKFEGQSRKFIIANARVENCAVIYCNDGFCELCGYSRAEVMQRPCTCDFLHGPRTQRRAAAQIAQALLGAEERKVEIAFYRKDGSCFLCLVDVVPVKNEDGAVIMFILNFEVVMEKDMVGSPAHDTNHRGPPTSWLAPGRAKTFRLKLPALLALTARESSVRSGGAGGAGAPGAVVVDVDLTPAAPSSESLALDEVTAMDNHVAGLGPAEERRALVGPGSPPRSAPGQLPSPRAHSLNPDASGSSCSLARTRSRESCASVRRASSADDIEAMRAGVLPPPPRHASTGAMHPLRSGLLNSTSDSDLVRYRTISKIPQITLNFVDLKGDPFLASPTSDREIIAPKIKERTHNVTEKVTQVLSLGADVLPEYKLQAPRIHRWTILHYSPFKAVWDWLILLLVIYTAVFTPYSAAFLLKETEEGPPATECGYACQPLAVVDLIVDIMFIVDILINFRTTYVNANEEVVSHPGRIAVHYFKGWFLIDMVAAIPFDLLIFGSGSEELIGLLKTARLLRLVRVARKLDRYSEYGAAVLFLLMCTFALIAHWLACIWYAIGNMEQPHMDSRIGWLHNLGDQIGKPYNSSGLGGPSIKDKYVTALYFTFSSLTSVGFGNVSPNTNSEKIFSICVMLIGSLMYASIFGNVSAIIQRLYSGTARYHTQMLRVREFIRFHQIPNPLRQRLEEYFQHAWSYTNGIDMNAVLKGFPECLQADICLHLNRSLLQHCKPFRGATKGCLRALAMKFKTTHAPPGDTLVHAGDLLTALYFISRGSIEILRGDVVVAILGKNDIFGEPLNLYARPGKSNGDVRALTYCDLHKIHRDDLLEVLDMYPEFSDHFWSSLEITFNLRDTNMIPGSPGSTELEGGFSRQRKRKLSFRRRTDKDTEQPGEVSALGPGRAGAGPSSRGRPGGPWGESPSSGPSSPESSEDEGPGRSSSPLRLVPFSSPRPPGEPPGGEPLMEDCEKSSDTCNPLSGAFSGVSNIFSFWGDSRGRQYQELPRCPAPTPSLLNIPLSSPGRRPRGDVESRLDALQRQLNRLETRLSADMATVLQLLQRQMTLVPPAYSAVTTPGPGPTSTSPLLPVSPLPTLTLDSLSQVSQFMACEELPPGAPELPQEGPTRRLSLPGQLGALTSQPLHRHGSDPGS

[20] = Clearance in rat at 0.2 mg/kg, iv and 6 mg/kg, po; format: ADME, organism-based; settings: in vivo
[21] = Half life in Beagle dog at 0.1 mg/kg, iv and 1 mg/kg, po; format: ADME, organism-based, Canis lupus familiaris; settings: in vivo
[22] = biological target: T1, Voltage-gated inwardly rectifying potassium channel KCNH2; assay: Inhibition of human ERG expressed in HEK293 cells by patch-clamp method; format: cell-based
[23] = Half life in cynomolgus monkey at 0.1 mg/kg, iv and 1 mg/kg, po; format: ADME, organism-based, Macaca fascicularis; settings: in vivo

Coagulation factor X, sequence (P00742 41-179 limits assumed): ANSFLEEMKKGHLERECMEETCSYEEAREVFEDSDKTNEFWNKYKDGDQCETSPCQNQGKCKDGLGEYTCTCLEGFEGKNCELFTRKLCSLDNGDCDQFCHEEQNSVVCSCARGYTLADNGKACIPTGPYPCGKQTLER
Coagulation factor X, sequence (P00742 235-488 limits assumed): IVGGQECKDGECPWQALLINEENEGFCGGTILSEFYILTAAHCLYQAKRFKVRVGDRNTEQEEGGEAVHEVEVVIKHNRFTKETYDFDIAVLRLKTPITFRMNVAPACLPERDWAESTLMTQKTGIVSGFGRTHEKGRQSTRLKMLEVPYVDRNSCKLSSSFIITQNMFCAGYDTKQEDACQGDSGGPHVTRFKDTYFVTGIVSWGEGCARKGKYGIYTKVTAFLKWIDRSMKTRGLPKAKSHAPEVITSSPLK

Structure (SMILES): CN1CCN=C1c1ccc(C(=O)Nc2ccc(Cl)cc2C(=O)Nc2ccc(Cl)cn2)cc1
IC50 (Coagulation factor X): 1.5 nM

Structure (SMILES): CN(C)C(=N)c1ccc(C(=O)Nc2ccc(S(C)(=O)=O)cc2C(=O)Nc2ccc(Cl)cn2)cc1
IC50 (Coagulation factor X): 1.5 nM

Structure (SMILES): CC(C)Oc1cc(Cl)cc(C(=O)Nc2ccc(Cl)cn2)c1NC(=O)c1ccc(C(=N)N(C)C)cc1
IC50 (Coagulation factor X): 0.5 nM

Structure (SMILES): CCN1CCN=C1c1ccc(C(=O)Nc2ccc(Cl)cc2C(=O)Nc2ccc(Cl)cn2)cc1
IC50 (Coagulation factor X): 6 nM

Structure (SMILES): CN(C)C(=N)c1ccc(C(=O)Nc2c(C(=O)Nc3ccc(Cl)cn3)cc(Cl)cc2N2CCCCC2)cc1
IC50 (Coagulation factor X): 0.9 nM

Structure (SMILES): CN(C)C(=N)c1ccc(C(=O)Nc2c(C(=O)Nc3ccc(Cl)cn3)cc(Cl)cc2N2CCOCC2)cc1
IC50 (Coagulation factor X): 1.3 nM

Structure (SMILES): C#Cc1ccc(NC(=O)c2cc(Cl)ccc2NC(=O)c2ccc(C(=N)N(C)C)cc2)cc1
IC50 (Coagulation factor X): 0.9 nM

Structure (SMILES): CN(C)C(=N)c1ccc(C(=O)Nc2ccc(Cl)cc2C(=O)Nc2ccc(Cl)s2)cc1
IC50 (Coagulation factor X): 6 nM

Structure (SMILES): CN(C)C(=N)c1ccc(C(=O)Nc2c(C(=O)Nc3ccc(Cl)cn3)cc(Cl)cc2N(C)C)cc1
IC50 (Coagulation factor X): 0.5 nM

Structure (SMILES): COCCN(C)c1cc(Cl)cc(C(=O)Nc2ccc(Cl)cn2)c1NC(=O)c1ccc(C(=N)N(C)C)cc1
IC50 (Coagulation factor X): 1.2 nM
bioavailability [1]: 8.1%

Structure (SMILES): CN(C)C(=N)c1ccc(C(=O)Nc2ccc(OCC(F)(F)F)cc2C(=O)Nc2ccc(Cl)cn2)cc1
IC50 (Coagulation factor X): 10 nM

Structure (SMILES): CCSc1ccc(NC(=O)c2ccc(C(=N)N(C)C)cc2)c(C(=O)Nc2ccc(Cl)cn2)c1
IC50 (Coagulation factor X): 1.3 nM

Structure (SMILES): CCc1ccc(NC(=O)c2ccc(C(=N)N(C)C)cc2)c(C(=O)Nc2ccc(Cl)cn2)c1
IC50 (Coagulation factor X): 1 nM

Structure (SMILES): CN(C)C(=N)c1ccc(C(=O)Nc2ccc(Cl)cc2C(=O)Nc2ccc(Cl)cc2)cc1
IC50 (Coagulation factor X): 0.7 nM

Structure (SMILES): N=C(c1ccc(C(=O)Nc2ccc(Cl)cc2C(=O)Nc2ccc(Cl)cn2)cc1)N1CCC(C(=O)O)CC1
IC50 (Coagulation factor X): 2 nM

Structure (SMILES): N=C(c1ccc(C(=O)Nc2ccc(Cl)cc2C(=O)Nc2ccc(Cl)cn2)cc1)N1CCCC1
IC50 (Coagulation factor X): 2 nM

Structure (SMILES): CN(C)C(=N)c1ccc(C(=O)Nc2ccc(Cl)cc2C(=O)Nc2ccc(Cl)cn2)c(N2CCC(C(=O)O)CC2)c1
IC50 (Coagulation factor X): 0.7 nM

Second part, led by results:

IC50 (Coagulation factor X): 0.6 nM
bioavailability [1]: 11.2%
Structure (SMILES): COc1cc(Cl)cc(C(=O)Nc2ccc(Cl)cn2)c1NC(=O)c1ccc(C(=N)N(C)C)cc1

IC50 (Coagulation factor X): < 0.5 nM
bioavailability [1]: 21.3%
Structure (SMILES): CN(C)C(=N)c1ccc(C(=O)Nc2ccc(Cl)cc2C(=O)Nc2ccc(Cl)cn2)c(N2CCCCC2)c1

IC50 (Coagulation factor X): 2 nM
bioavailability [1]: 6.9%
Structure (SMILES): CN(C)C(=N)c1ccc(C(=O)Nc2ccc(Cl)cc2C(=O)Nc2ccc(Cl)cn2)c(N2CCCC2)c1

IC50 (Coagulation factor X): 0.7 nM
Structure (SMILES): CN(C)C(=N)c1ccc(C(=O)Nc2ccc(Cl)cc2C(=O)Nc2ccc(Cl)cn2)c(N2CCOCC2)c1

IC50 (Coagulation factor X): 7 nM
Structure (SMILES): COc1cc(C(=O)Nc2ccc(Cl)cc2C(=O)Nc2ccc(Cl)cn2)ccc1C(=N)N(C)C

AUC [2]: 0.32 µg·h/mL
IC50 [3]: 510 nM
IC50 (Plasminogen): > 10000 nM
Vd [4]: 36.5 L/kg
AUC [5]: 0.885 µg·h/mL
clearance [6]: 1.6 L/h/kg
Vd [7]: 26.1 L/kg
clearance [8]: 2.04 L/h/kg
IC50 [9]: > 10000 nM
Vd [10]: 45.7 L/kg
IC50 [11]: > 10000 nM
AUC [12]: 0.512 µg·h/mL
fraction unbound at 0.5 h, 10 µM [13]: 0.881
half-life [14]: 12.8 h
bioavailability [15]: 26.1%
IC50 [16]: > 10000 nM
bioavailability [17]: 64.9%
bioavailability [18]: 73%
IC50 (Prothrombin): > 10000 nM
clearance [20]: 1.78 L/h/kg
half-life [21]: 15.3 h
half-life [23]: 19.4 h
Structure (SMILES): CN(C)C(=N)c1ccc(C(=O)Nc2ccc(Cl)cc2C(=O)Nc2ccc(Cl)cn2)cc1
Ki [19]: 110 nM
IC50 [22]: 330 nM

IC50 (Coagulation factor X): 1.2 nM
Structure (SMILES): COCCOc1cc(C(=N)N(C)C)ccc1C(=O)Nc1ccc(Cl)cc1C(=O)Nc1ccc(Cl)cn1

IC50 (Coagulation factor X): 1 nM
Structure (SMILES): CN(C)C(=N)c1csc(C(=O)Nc2ccc(Cl)cc2C(=O)Nc2ccc(Cl)cn2)c1

IC50 (Coagulation factor X): 1.1 nM
Structure (SMILES): CN(C)C(=N)c1ccc(C(=O)Nc2ccc(Cl)cc2C(=O)Nc2ccc(Cl)cn2)cc1F

IC50 (Coagulation factor X): 3 nM
Structure (SMILES): CN(C)C(=N)c1ccc(C(=O)Nc2ccc(Cl)cc2C(=O)Nc2ccc(Cl)cn2)c(N(C)C)c1

IC50 (Coagulation factor X): < 0.5 nM
Structure (SMILES): CN(C)CCOc1cc(C(=N)N(C)C)ccc1C(=O)Nc1ccc(Cl)cc1C(=O)Nc1ccc(Cl)cn1
